Assay results taken from patent US6150414A, “Compositions and methods for treating viral infections” (priority 1992, dated 2000).
Where “and” joins values, the source holds several entries; their conditions need not be identical. Equal values may be shown once.

Tests used:
Friend Leukemia Virus [1] = test: FV-induced splenomegaly, PAC compounds in combination with AZT (Example 1(b)); format: in vivo, BALB/c mice; conditions: 5X AZT 20 micrograms per mouse
Procedure: (§1) The effects of compositions according to the present invention on the increase in spleen size (splenomegaly) of BALB/c mice (Jackson Labs, Bar Harbor, ME) was examined. In these experiments, the virus (10^6 focus forming units--FFU) was inoculated intravenously and 100 micrograms of the compounds indicated in Table II were administered to the mice intraperitoneally 24 hours later. Each compound was administered once to two mice. The animals were sacrificed ten days later and their spleens weighed.
(§2) As used in Table II (and subsequent Tables of this Example l(a) and (b), "average percent inhibition" is calculated as follows: [formula] wherein "ASWNC" designates "average spleen weight of negative control"; "ASWE" designates "average spleen weight of experimental (treated) subject"; and "ASWPC" designates "average spleen weight of positive control". Average spleen weight is the numerical average of spleen weights of each experimental group (in Table II each such group includes two members).
The compounds of the present invention (100 micrograms per mouse) were also tested in combination with AZT (20 micrograms per mouse, twice a day) using otherwise the same methods as in Example 1(a) above. As representatives, compound #9 above (3-bromophenanthro (3,4-C), phenanthrene) and compound #10 (diindeno (1, 2, 3-CD/1', 2', 3'-IM) Perylene) were chosen. […] The compounds were administered i.p. either once or five times (once per day) alone or together with AZT (20 micrograms of AZT per mouse twice a day for five days?). Thus, in experiments where AZT was administered five times, a total of […] of AZT was received by each mouse (with a total of 500 micrograms of the PAC compound).

HIV = conditions: human, in vivo; cited from earlier work
[2] = target: T1, Radiation Leukemia Virus reverse transcriptase (Radiation murine leukemia virus, UniProt P11227); test: Radiation Leukemia Virus reverse transcriptase assay, supernatants from infected AQR cells (Examples 4 and 9); format: biochemical; conditions: Table VIII; for CPM: replicate
T1 construct: the reverse transcriptase of Radiation Leukemia Virus; endogenous in cells
Procedure: Supernatants (10 ml/tube) from B10.T(6R) cells (Meruelo et al. J. Exp. Med. 147: 470-487, 1978) chronically infected with Radiation Leukemia Virus (RadLV) were obtained by centrifugation of cells in culture at 4° C., 3500 rpm for 15 minutes. The top 2/3 of the supernatant were removed and aliquots were incubated for 30 minutes on ice with the indicated amounts of hypericin or protohypericin. […] Thereafter, supernatants were centrifuged at 100,000×g using a TI70 rotor (Beckman Instruments) for 1 hour at 4° C. The pellet was […] and analyzed for reverse transcriptase activity as follows.
The reverse transcriptase assay was performed in a volume of 100 microliters containing the following components:
The antiviral activity of HHA was tested using AQR (Bach and Meruelo, J. Exp. Med. 160:270-285, 1984) cells chronically infected with Radiation Leukemia Virus in the reverse transcriptase assay as described in Example 3 above.
The assays were conducted using the same procedure as in Example 3 above, using supernatants from infected AQR cells.

Friend Virus = test: Friend Virus-induced splenomegaly, WIS compounds (Example 8); format: in vivo, mice; set-up: Actual Spleen Weight / Average Spleen Weight: unit not given here; conditions: Table VII; for Actual Spleen Weight: single animal
Procedure: as §1, §2
The AAB compounds whose synthesis is described above were assayed for antiviral activity. WIS-2, -3, -4, -5 and -6 were tested to determine their biological effects on Friend Virus-induced splenomegaly using the procedure and technique set forth in Example 1 above. The assay results (three mice per group were tested each at different concentrationss of the active composition except for the PBS-negative control wherein two animals per group were used) are reported in Table VII below.

retroviruses (virions) = test: Direct inactivation of retroviruses (virions) in vitro (Example 10); format: biochemical, Radiation Leukemia Virus; conditions: Table IX
Method in brief: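 RadLV-containing supernatants from chronically infected B10.T(6R) cells incubated 30 min on ice with hypericin or protohypericin. Virions then pelleted at 100,000×g for 1 h at 4° C and assayed for reverse transcriptase activity. EC50 is the micromolar concentration inhibiting 50% of virus.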

Friend Leukemia Virus [3] = test: In vivo inhibition of Friend Leukemia Virus splenomegaly, intravenous 1-2 hours post infection (Example 10); set-up: species or system mice; conditions: Mus musculus, i.v. 1-2 hours post infection, Table IX, read-out: EC50 for FV-induced splenomegaly
Procedure: (3) In vivo inhibition of Friend Leukemia Virus Splenomegaly performed as described in Example 1 above except that the compounds were administered intravenously 1-2 hours post infection.
The results presented above in Table IX are presented as EC50 concentrations. These are the effective concentrations which inhibit 50% of the viruses in micromolar concentrations.

[4] = Stability to light and pH; format: physicochemical; conditions: neutral or acetic pH
retroviruses = test: Comparison over two in vitro and one in vivo biological assays (Example 10); conditions: Example 10, structural comparison
Method in brief: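 In vitro direct inactivation of retroviruses was tested alongside in vivo inhibition of Friend Leukemia Virus splenomegaly in mice. For the in vivo test, compounds were given intravenously 1-2 hours post infection.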

Cc1cn([C@H]2C[C@H](N=[N+]=[N-])[C@@H](CO)O2)c(=O)[nH]c1=O [AZT, 3'-azido-3'-dideoxythymidine, reference compound]
% Inhibition (Friend Leukemia Virus [1]): 39%
Average Spleen Weight (Friend Leukemia Virus [1]): 1.3895
Spleen weight (Friend Leukemia Virus [1]; single animal): 1.3744 and 1.4046
clinical toxicity of AZT (HIV): dose-dependent suppression of bone marrow, resulting in anemia and leukopenia

Cc1cc(O)c2cc3c(O)cc(O)c4c5c(O)cc(O)c6cc7c(O)cc(C)c8c1c2c(c34)c(c78)c65 [WIS-5, desoxyhypericin]
Average CPM ([2]; 0.05 micrograms): 193,017 CPM
CPM ([2]; 0.05 micrograms): 183,654 CPM and 202,380 CPM
Average CPM ([2]; 0.1 micrograms): 171,635 CPM
CPM ([2]; 0.1 micrograms): 172,984 CPM and 170,286 CPM
Average CPM ([2]; 0.5 micrograms): 249,351 CPM
CPM ([2]; 0.5 micrograms): 240,372 CPM and 258,330 CPM
Average CPM ([2]; 1 microgram): 251,168 CPM
CPM ([2]; 1 microgram): 238,782 CPM and 263,554 CPM
Average CPM ([2]; 2 micrograms): 205,469 CPM
CPM ([2]; 2 micrograms): 216,764 CPM and 194,174 CPM
Average CPM ([2]; 5 micrograms): 236,878 CPM
CPM ([2]; 5 micrograms): 220,588 CPM and 253,168 CPM
Average CPM ([2]; 10 micrograms): 177,364 CPM
CPM ([2]; 10 micrograms): 168,008 CPM and 186,720 CPM
inhibition at 50 ng ([2]; 0.5 h, 0.05 micrograms): 76.4%
inhibition at 0.0001 mg ([2]; 0.5 h, 0.1 micrograms): 79%
inhibition at 0.0005 mg ([2]; 0.5 h, 0.5 micrograms): 69.5%
inhibition at 0.001 mg ([2]; 0.5 h, 1 microgram): 69.2%
inhibition at 0.002 mg ([2]; 0.5 h, 2 micrograms): 74.8%
inhibition at 0.005 mg ([2]; 0.5 h, 5 micrograms): 71%
inhibition at 0.01 mg ([2]; 0.5 h, 10 micrograms, read-out: Average % Inhibition): 78.3%
Average % Inhibition (Friend Virus; 1 microgram): 5.9%
Average Spleen Weight (Friend Virus; 1 microgram): 0.9197
Actual Spleen Weight (Friend Virus; 1 microgram): 0.9062 and 0.9528 and 0.9001
Average % Inhibition (Friend Virus; 10 micrograms): 6.5%
Average Spleen Weight (Friend Virus; 10 micrograms): 0.9147
Actual Spleen Weight (Friend Virus; 10 micrograms): 0.9126 and 0.8898 and 0.9417
Average % Inhibition (Friend Virus; 50 micrograms): 19.3%
Average Spleen Weight (Friend Virus; 50 micrograms): 0.8134
Actual Spleen Weight (Friend Virus; 50 micrograms): 0.7817 and 0.8389 and 0.8196
Average % Inhibition (Friend Virus; 150 micrograms): 35.2%
Average Spleen Weight (Friend Virus; 150 micrograms): 0.6879
Actual Spleen Weight (Friend Virus; 150 micrograms): 0.6919 and 0.6790 and 0.6927
EC50 (retroviruses (virions)): > 21 µM
EC50 (Friend Leukemia Virus [3]): > 316 µM
stability vs pH [4]: decomposses readily in neutral or acetic pH
loss of antiviral activity relative to parent (retroviruses): significant loss of in vivo reverse transcriptase inhibitory activity
